Here are results for four compounds from paper PMC4102529, “FRET Based Quantification and Screening Technology Platform for the Interactions of Leukocyte Function-Associated Antigen-1 (LFA-1) with InterCellular Adhesion Molecule-1 (ICAM-1)” (PLoS ONE, 2014).

Assay [1] concerns I-domain of LFA-1 (CD11a I-domain). The settings on record: ref [58]; cited from earlier work. The text has this: In our study, we identified three LFA-1 derived peptides, CD11a237–261, […], and CD11a456–465, to compare their inhibition efficiency via our steady-state FRET based competitive screening assay. Moreover, the inhibition efficiency of lovastatin, a well-known potent inhibitor of the ICAM-1 interaction, was also obtained to further validate the FRET screening platform. ...

In assay [2] the test system is human immunodeficiency virus type 1. The conditions noted are these: ref [59]; cited from earlier work.
Assay [3] concerns LFA-1/D1-D2-Fc (ICAM-1) interaction. Description: Steady-state FRET based competitive screening assay for inhibition of the LFA-1/D1-D2-Fc interaction. The class given is binding, human. The settings on record: for inhibition efficiency: 100 nM Alexa Fluor 488-LFA-1 + 100 nM Alexa Fluor 555-D1-D2-Fc, PBS, pH 7.4, 1 mM EGTA, 2 mM Mg^2+, 30 min, dark, calculated from FRET efficiency, Eq. (1); for FRET efficiency: mean ± rms, control without inhibitor 53.51 ± 0.10%, A/D = 2.12, excitation 470 nm, Eq. (3); for rank of inhibition efficiency among the three LFA-1 derived peptides: 0.02, 0.2, 2 and 20 µM. As to the method:
But with increasing concentration of the lovastatin, the FRET efficiency decreased to 5.3% for 200 µM of lovastatin. The inhibition efficiency (%) was calculated for each concentration of lovastatin using the relation,
[drawing 1] (1) where Fcontrol is the FRET efficiency of the Alexa Fluor 488-LFA-1 and Alexa Fluor 555-D1-D2-Fc alone and Fx is that of the FRET mixture when incubated with inhibitors. The inhibition efficiency of lovastatin was calculated to be 69.48±0.77%, 73.84±0.56%, 84.98±0.10%, and 90.03±0.06% for 0.2, 2, 20, and 200 µM respectively [Fig. 7(a)].
To characterize and compare the inhibitory activity of the selected peptides, CD11a237–261, CD11a441–465, and CD11a456–465, the FRET mixture was incubated with several concentrations (0.02, 0.2, 2, and 20 µM) of the peptides (following the procedure described in the “Materials and Methods” section) and the FRET efficiency (Tables S3, S4, S5) and the inhibition efficiency [Fig. 7(b)] were calculated for each case. The inhibition efficiency for CD11a237–261 at 0.02, 0.2, 2, and 20 µM are 40.81±0.31%, 47.05±0.56%, 53.16±0.70%, 65.13±0.81%, respectively; the corresponding values for CD11a441–465, at the same concentrations, are 20.89±0.72%, 37.08±0.29%, 46.93±0.89%, 62.01±0.15%, respectively; and for CD11a456–465, the corresponding values are 12.17±0.91%, 20.26±0.69%, 36.46±0.42%, 51.41±0.33%. From these values, we note that the difference in inhibition efficiency of these three peptides is much more significant at low peptide concentration (on the order of 0.02 to 0.2 µM), the cause of which requires further investigation. Nevertheless, in all cases, the inhibition efficiency of CD11a237–261 is highest and CD11a456–465 the lowest, which are in good agreement with those reported in the literature.
The FRET efficiency can be adjusted by changing the fluorophore to protein ratio; the optimal acceptor to donor fluorophore (A/D) ratio was obtained following the procedure reported in the literature with slight modification. In short, A/D is defined as the number of the acceptor fluorophore molecules to donor molecule in the interacting protein complex. Several concentration ratios of Alexa Fluor 488-LFA-1 and Alexa Fluor 555-D1-D2-Fc were incubated for 30 minutes at room temperature and the FRET emission spectra were obtained via a fluorescence multiplate reader, Tecan Infinite M200 pro (Männedorf, Switzerland). For each concentration ratio, the concentration of the acceptor conjugate, Alexa Fluor 555-D1-D2-Fc, was kept constant. The optimal A/D ratio for the FRET pair was selected by comparing the FRET efficiencies for different A/D ratios. […] Due to these facts, we have used equation (3), [65] given below for the FRET efficiency (E) calculation which incorporates the cross-talk corrections for each of the A/D ratios. [drawing 3] (3) here, (λ470, λ) denotes the numerical integral of the emission spectrum between 560 and 610 nm when excited with 470 nm. fDA, fA, and fD represent the emission spectra of the FRET mixture, acceptor alone, and donor alone, respectively. The absorbance values of donor and acceptor, at the excitation maximum of Alexa Fluor 488 of 470 nm, is represented by A^D and A^A, respectively. […] In this article, the calculation was implemented assuming that there […] in the overlap integral with different F/P and the (associated) different A/D ratios. The optimal A/D ratio was used for the development of the FRET based screening platform for the assessment of peptides and small molecules for their inhibition efficiency of the LFA-1 and ICAM-1 interactions.
The donor, Alexa Fluor 488-LFA-1, with a concentration corresponding to the […] A/D ratio was mixed with each kind of LFA-1 derived peptides (CD11a237–261, CD11a441–465, and CD11a456–465) in PBS, pH 7.4, 1 mM EGTA and 2 mM Mg^2+. […]

In assay [4] the test system is interaction of ICAM-1 with LFA-1. More on the design: method as in PMID 12368073. The settings on record: ref [34]; cited from earlier work. The text has this: Based on these roles in several disease pathologies, the LFA-1/ICAM-1 interaction can serve as a potential therapeutic target in the development of new therapies for the autoimmune diseases, metastasis cancer, and viral diseases. […] Furthermore, several […] therapies were developed for the treatment of autoimmune diseases. However, […] therapies have serious side effects in humans due to their large molecular structure an ...

Consider `CC[C@H](C)C(=O)O[C@H]1C[C@@H](C)C=C2C=C[C@H](C)[C@H](CC[C@@H]3C[C@@H](O)CC(=O)O3)[C@H]21` [lovastatin, reference compound], for which, in assay [1], the “binding to the I-domain of LFA-1” value was “binds with the highly conserved I-domain of LFA-1”. In addition, the “effect on HIV-1 replication” value in assay [2] is listed as “reduction of human immunodeficiency virus type 1 replication”. In addition, the inhibition efficiency is recorded as 69.48±0.77% in assay [3] (0.2 µM inhibitor), 73.84±0.56% in assay [3] (2 µM inhibitor), 84.98±0.10% in assay [3] (20 µM inhibitor) and 90.03±0.06% in assay [3] (200 µM inhibitor). In addition, the FRET efficiency in assay [3] (0.2 µM inhibitor) is 16.33 ± 0.76%; in assay [3] (2 µM inhibitor), 14.00 ± 0.57%; in assay [3] (20 µM inhibitor), 8.03 ± 0.01%; in assay [3] (200 µM inhibitor), 5.3%; in assay [3] (200 µM inhibitor, listed as Lovastatin), 5.33 ± 0.01%. Besides, the “inhibition of the interaction of ICAM-1 with LFA-1” value in assay [4] is on record as “specifically inhibits the interaction of ICAM-1 with LFA-1”.
For the compound “APLFY- GEQRG [CD11a456–465, LFA-1α derived peptide, purchased from GenScript]”, the inhibition efficiency in assay [3] (0.02 µM inhibitor) is 12.17±0.91%; in assay [3] (0.2 µM inhibitor), 20.26±0.69%; in assay [3] (2 µM inhibitor) it was 36.46±0.42%; in assay [3] (20 µM inhibitor) it was 51.41±0.33%. For the same compound, the FRET efficiency in assay [3] (0.02 µM inhibitor) is recorded as 47.00 ± 0.81%; in assay [3] (0.2 µM inhibitor), 42.67 ± 0.57%; in assay [3] (2 µM inhibitor) it was 34.00 ± 0.08%; in assay [3] (20 µM inhibitor) it was 26.00 ± 0.58%. The “rank of inhibition efficiency among the three LFA-1 derived peptides” value in assay [3] is listed as “the lowest”.
As to “GVDVDQDGETEL-IGAPLFYGEQRG [CD11a441–465, LFA-1α derived peptide, purchased from GenScript]”, the inhibition efficiency is 20.89±0.72% in assay [3] (0.02 µM inhibitor), 37.08±0.29% in assay [3] (0.2 µM inhibitor), 46.93±0.89% in assay [3] (2 µM inhibitor) and 62.01±0.15% in assay [3] (20 µM inhibitor). The FRET efficiency in assay [3] (0.02 µM inhibitor) turned out to be 42.33 ± 0.23%; in assay [3] (0.2 µM inhibitor) it was 33.67 ± 0.51%; in assay [3] (2 µM inhibitor), 28.40 ± 0.02%; in assay [3] (20 µM inhibitor), 20.33 ± 0.53%.
Consider “ITDGEATDSGNIDAAKDIIR-YIIGI [CD11a237–261, LFA-1α derived peptide, purchased from GenScript]”, for which the inhibition efficiency in assay [3] (0.02 µM inhibitor) is on record as 40.81±0.31%; in assay [3] (0.2 µM inhibitor) it was 47.05±0.56%; in assay [3] (2 µM inhibitor), 53.16±0.70%; in assay [3] (20 µM inhibitor), 65.13±0.81%. The FRET efficiency was 31.67 ± 0.06% in assay [3] (0.02 µM inhibitor), 28.33 ± 0.51% in assay [3] (0.2 µM inhibitor), 25.06 ± 0.66% in assay [3] (2 µM inhibitor) and 18.66 ± 0.06% in assay [3] (20 µM inhibitor). For the same compound, the “rank of inhibition efficiency among the three LFA-1 derived peptides” value in assay [3] was “highest inhibition efficiency”.
